Where a name gives a salt, the structure may show the parent alone.
Tests used:
[1] = target: T1, human M1 receptor (hCHRM1) (Homo sapiens, UniProt P11229); assay: Measurement of M1 receptor positive allosteric modulator (M1PAM) activity, Ca2+ fluorescence by FLIPRtetra (Experimental Example 1); type: cell-based; details: for activity (%) at 10 μM: 10 μM test compound, 100% = acetylcholine 1 μM, 0% = DMSO; for EC50: inflection point of concentration-dependent curve, in presence of acetylcholine at EC20 (0.8-1.0 nM), CHO-K1 cells expressing hCHRM1, read-out: IP value
T1 construct: expressed in transfected cells
T1 sequence (P11229 1-460): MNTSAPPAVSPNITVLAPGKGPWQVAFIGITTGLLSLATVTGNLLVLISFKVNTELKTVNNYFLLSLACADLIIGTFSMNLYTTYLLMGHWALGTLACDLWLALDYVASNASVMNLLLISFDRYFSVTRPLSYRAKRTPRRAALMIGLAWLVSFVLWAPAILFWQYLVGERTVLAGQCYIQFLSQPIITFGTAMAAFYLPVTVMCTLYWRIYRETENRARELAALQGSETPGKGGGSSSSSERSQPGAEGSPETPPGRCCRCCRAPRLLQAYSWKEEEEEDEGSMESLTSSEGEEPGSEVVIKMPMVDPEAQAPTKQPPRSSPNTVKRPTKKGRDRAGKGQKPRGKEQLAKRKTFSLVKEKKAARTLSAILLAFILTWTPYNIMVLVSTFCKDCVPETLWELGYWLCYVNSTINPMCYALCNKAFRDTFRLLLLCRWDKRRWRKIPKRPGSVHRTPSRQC
Summary of the method: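 CHO-K1 cells stably expressing hCHRM1, loaded with Fluo-4 AM (probenecid), received compound with acetylcholine at EC20 (final 0.8-1.0 nM); Ca2+ fluorescence read 1 min by FLIPRtetra. Activity scaled 0% (DMSO) to 100% (1 μM acetylcholine); IP from inflection point of concentration curve.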

[2] = system: Myo-Inositol 1 Phosphate (IP1); assay: Measurement of myo-inositol 1 phosphate (IP1) in rat hippocampi after oral administration (Experimental Example 3); type: in vivo, male Long-Evans rats; details: IP1 production (IP1/protein) in rat hippocampi; 10 mg/kg oral; relative to Vehicle administration group as 100%
Protocol: Measurement of Myo-Inositol 1 Phosphate (IP1)
Animals used were male Long-Evans rats. They were used after acclimation for at least 1 week. Test compounds were suspended in 0.5% (w/v) aqueous methylcellulose solution, and the suspension was orally administered to the rats. After a given time, lithium chloride dissolved in saline was subcutaneously administered into the rats. After a given time, their bilateral hippocampi were isolated from the rats, and the wet weight thereof was measured. The isolated hippocampi were homogenized with HEPES (registered trademark) buffer, followed by centrifugation. The IP1 and protein concentrations in the supernatant were measured by IP-One HTRF assay kit (Cisbio Bioassays) and BCA protein assay kit (Thermo Scientific), respectively. The level of the IP1 production was expressed as the ratio of the concentration of IP1 to that of protein. The increase rate of the IP1 production was shown as a relative value when Vehicle administration group as 100%.

[3] = system: Scopolamine-induced memory deficits models; assay: Novel object recognition test (Experimental Example 4); type: in vivo, male Long-Evans rats; details: scopolamine 0.1 mg/kg s.c., retention trial 4 hr after acquisition, mean±standard error
Protocol: Novel Object Recognition Test Novel object recognition test is comprised of two trials called the acquisition and the retention trials. Scopolamine-induced memory deficits models were used for the test, and animals used were male Long-Evans rats. On the day before the test, for acclimation, the rats were allowed to freely move about the test box (40×40×50 cm) for 10 minutes. On the test day, the rats were acclimated to the test room for about 1 hr prior to the test. The test compounds were orally administered to the rats in a single dose a given time before the acquisition trial. For induction of learning and memory deficits, scopolamine (0.1 mg/kg) was subcutaneously administered into the rats 30 min before the acquisition trial. For the acquisition trial, two identical objects (A1, A2) were placed in the test box. The rats were put in the test box for 3 min, and the duration exploring each object was measured. The retention trial was performed 4 hr after the acquisition trial. For the retention trial, one familiar object (A3) used for the acquisition trial and one novel object (B) having a different shape from A3 were placed in the test box. After setting the objects, the rats were introduced into the test box and retention trial was performed for 3 min. The duration for exploring each object in the acquisition trial and the retention trial was measured, and the exploration rate of novel object was calculated. The exploration rate of novel object was expressed as (the duration exploring the novel object)/[(the duration exploring the novel object)+(the duration exploring the familiar object)]×100(%) at mean±standard error.

[4] = target: T1, human M1 receptor (hCHRM1); assay: Measurement of M1 receptor positive allosteric modulator (M1PAM) activity, Ca2+ fluorescence by FDSS/μ cell (Experimental Example 2); type: cell-based; details: for activity (%) at 10 μM: 10 μM test compound, 100% = acetylcholine 1 μM, 0% = DMSO; for EC50: inflection point of concentration-dependent curve, in presence of acetylcholine at EC20 (0.8-1.0 nM), CHO-K1 cells expressing hCHRM1, read-out: IP value
Protocol: Measurement of M1 Receptor Positive Allosteric Modulator (M1PAM) Activity
The activity of a test compound in the presence of acetylcholine at EC20 concentration (final concentration 0.8-1.0 nM), which affords an action corresponding to about 20% of the maximum activity, was measured as PAM activity. The method is as follows. CHO-K1 cells stably expressing a human M1 receptor (hCHRM1) were plated on a 384-well black clear bottom plate (BD Falcon) at 5,000 cells/well, and cultured in an incubator at 37° C., 5% CO2 for 1 day. The medium in the cell plate was removed, and a dye solution (prepared by adding Recording medium (DOJINDO LABORATORIES) to a final concentration of 1×concentration, Fluo-4 AM (DOJINDO LABORATORIES) to a final concentration of 2.5 μg/mL, Pluronic F127 (DOJINDO LABORATORIES) to a final concentration of 0.08%, and probenecid (DOJINDO LABORATORIES) to a final concentration of 1.25 mM to assay buffer (HBSS (Invitrogen), 20 mM HEPES (Invitrogen), 0.1% BSA (Wako Pure Chemical Industries, Ltd.))) was added at 30 μL/well. The cells were left standing in the incubator at 37° C., 5% CO2 for 30 min, and further left standing at room temperature for 30 min. A test compound prepared by diluting with assay buffer containing 3.2-4.0 nM acetylcholine was added at 10 μL/well, and the fluorescence was measured by FDSS/μ cell (Hamamatsu Photonics K.K.) for 1 min every 1 second. With the definition that the amount of change in the fluorescence on addition of acetylcholine (final concentration 1 μM) is 100% and that on addition of DMSO instead of a test compound is 0%, the activity (%) of the test compound was calculated, and the inflection point in the concentration-dependent curve of the test compound was calculated as IP values.

For Cc1c(Cc2ccc(Cl)nc2)cc2c(c1Cl)OCN([C@H]1CCC[C@@H]1O)C2=O [Example 24, 8-chloro-6-((6-chloropyridin-3-yl)methyl)-3-((1S,2S)-2-hydroxycyclopentyl)-7-methyl-2,3-dihydro-4H-1,3-benzoxazin-4-one], the “activity (%) at 10 μM” value [1] was 94%, the EC50 [1] was 3.1 nM and the “increase rate (%) at 10 mg/kg” value [2] was 26%. For the same compound, the “exploration rate of novel object (%)” value ([3]; 3 mg/kg oral) was 63.5±2.4%.

For Cc1ccc(Cc2cc3c(cc2C)OCN([C@H]2CCCC[C@@H]2O)C3=O)cn1 (single isomer, unassigned) [Example 28, 3-(trans-2-hydroxycyclohexyl)-7-methyl-6-((6-methylpyridin-3-yl)methyl)-2,3-dihydro-4H-1,3-benzoxazin-4-one monohydrochloride (optical isomer)], the “activity (%) at 10 μM” value [1] was 108%, the EC50 [1] was 20 nM and the “increase rate (%) at 10 mg/kg” value [2] was 36%.

With Cc1c(Cc2ccc(-n3cccn3)nc2)cc2c(c1F)OCN([C@H]1CCC[C@@H]1O)C2=O [Example 13, 8-fluoro-3-((1S,2S)-2-hydroxycyclopentyl)-7-methyl-6-((6-(1H-pyrazol-1-yl)pyridin-3-yl)methyl)-2,3-dihydro-4H-1,3-benzoxazin-4-one] the “activity (%) at 10 μM” value [1] was 88%, the EC50 [1] was 6 nM and the “increase rate (%) at 10 mg/kg” value [2] was 102%. For the same compound, the “exploration rate of novel object (%)” value ([3]; 1 mg/kg oral) was 60.2±3.0%.

With Cc1c(Cc2ccc(-n3cccn3)nc2)cc2c(c1Cl)OCN([C@H]1COCC[C@@H]1O)C2=O [Example 106, 1,5-anhydro-2-(8-chloro-7-methyl-4-oxo-6-((6-(1H-pyrazol-1-yl)pyridin-3-yl)methyl)-2H-1,3-benzoxazin-3(4H)-yl)-2,4-dideoxy-L-threo-pentitol] the “activity (%) at 10 μM” value [4] was 113% and the EC50 [4] was 6.9 nM.

For Cc1cc(-c2ccc(Cc3cc4c(c(F)c3C)OCN([C@H]3CCC[C@@H]3O)C4=O)cc2)cnn1 [Example 105, 8-fluoro-3-((1S,2S)-2-hydroxycyclopentyl)-7-methyl-6-(4-(6-methylpyridazin-4-yl)benzyl)-2,3-dihydro-4H-1,3-benzoxazin-4-one hydrochloride], the “activity (%) at 10 μM” value [4] was 98% and the EC50 [4] was 5.6 nM.

In the case of Cc1c(Cc2ccc(-n3cccn3)nc2)cc2c(c1F)OCN([C@H]1COCC[C@@H]1O)C2=O [Example 102, 1,5-anhydro-2,4-dideoxy-2-(8-fluoro-7-methyl-4-oxo-6-((6-(1H-pyrazol-1-yl)pyridin-3-yl)methyl)-2H-1,3-benzoxazin-3(4H)-yl)-L-threo-pentitol], the “activity (%) at 10 μM” value [4] is reported as 98% and the EC50 [4] is reported as 8.7 nM.

With Cc1c(Cc2ccc(-c3ccn(C)n3)cc2)cc2c(c1C)OCN([C@H]1COCC[C@@H]1O)C2=O [Example 100, 1,5-anhydro-2,4-dideoxy-2-(7,8-dimethyl-6-(4-(1-methyl-1H-pyrazol-3-yl)benzyl)-4-oxo-2H-1,3-benzoxazin-3(4H)-yl)-L-threo-pentitol] the “activity (%) at 10 μM” value [4] was 99% and the EC50 [4] was 4.4 nM.

For Cc1cc(-c2ccc(Cc3cc4c(c(F)c3C)OCN([C@H]3CCC[C@@H]3O)C4=O)cn2)ccn1 [Example 90, 8-fluoro-3-((1S,2S)-2-hydroxycyclopentyl)-7-methyl-6-((2′-methyl-2,4′-bipyridin-5-yl)methyl)-2,3-dihydro-4H-1,3-benzoxazin-4-one], the “activity (%) at 10 μM” value [4] was 102% and the EC50 [4] was 4 nM.

Cc1cc2c(cc1Cc1ccc(Cl)nc1)C(=O)N([C@H]1CCCC[C@@H]1O)CO2 [Example 140, 6-((6-chloropyridin-3-yl)methyl)-3-((1S,2S)-2-hydroxycyclohexyl)-7-methyl-2,3-dihydro-4H-1,3-benzoxazin-4-one] was tested, and the “activity (%) at 10 μM” value [4] was 101% and the EC50 [4] was 10 nM.

CCc1cc2c(cc1Cc1ccc(OC)nc1)C(=O)N([C@H]1COCC[C@@H]1O)CO2 [Example 118, 1,5-anhydro-2,4-dideoxy-2-(7-ethyl-6-((6-methoxypyridin-3-yl)methyl)-4-oxo-2H-1,3-benzoxazin-3(4H)-yl)-L-threo-pentitol] was tested, and the “activity (%) at 10 μM” value [4] was 116% and the EC50 [4] was 47 nM.

For Cc1c(Cc2ccc(-n3cccn3)nc2)cc2c(c1C)OCN([C@H]1COCC[C@@H]1O)C2=O [Example 98, 1,5-anhydro-2,4-dideoxy-2-(7,8-dimethyl-4-oxo-6-((6-(1H-pyrazol-1-yl)pyridin-3-yl)methyl)-2H-1,3-benzoxazin-3(4H)-yl)-L-threo-pentitol], the “activity (%) at 10 μM” value [4] was 103% and the EC50 [4] was 4.9 nM.

Cc1cc2c(cc1Cc1ccc(-n3cccn3)nc1)C(=O)N([C@H]1COCC[C@@H]1O)CO2 [Example 103, 1,5-anhydro-2,4-dideoxy-2-(7-methyl-4-oxo-6-((6-(1H-pyrazol-1-yl)pyridin-3-yl)methyl)-2H-1,3-benzoxazin-3(4H)-yl)-L-threo-pentitol] was tested, and the “activity (%) at 10 μM” value [4] was 103% and the EC50 [4] was 15 nM.

Cc1c(Cc2ccc(-c3ccn(C)n3)nc2)cc2c(c1F)OCN([C@H]1CCCC[C@@H]1O)C2=O [Example 92, 8-fluoro-3-((1S,2S)-2-hydroxycyclohexyl)-7-methyl-6-((6-(1-methyl-1H-pyrazol-3-yl)pyridin-3-yl)methyl)-2,3-dihydro-4H-1,3-benzoxazin-4-one] was tested, and the “activity (%) at 10 μM” value [4] was 101% and the EC50 [4] was 3.4 nM.

For COc1ccc(Cc2cc3c(c(Cl)c2C)OCN([C@H]2COCC[C@@H]2O)C3=O)cn1 [Example 109, 1,5-anhydro-2-(8-chloro-6-((6-methoxypyridin-3-yl)methyl)-7-methyl-4-oxo-2H-1,3-benzoxazin-3(4H)-yl)-2,4-dideoxy-L-threo-pentitol], the “activity (%) at 10 μM” value [4] was 97% and the EC50 [4] was 5.7 nM.

Cc1c(Cc2ccc(-n3cccn3)cc2)cc2c(c1F)OCN(CC(C)(C)O)C2=O [Example 101, 8-fluoro-3-(2-hydroxy-2-methylpropyl)-7-methyl-6-(4-(1H-pyrazol-1-yl)benzyl)-2,3-dihydro-4H-1,3-benzoxazin-4-one] was tested, and the “activity (%) at 10 μM” value [4] was 91% and the EC50 [4] was 61 nM.
